Measured values reported in patent US10696615B2, “Prenylated hydroxystilbenes” (The University of Sydney, priority 2011, dated 2020).
Values after ≈ are worked out from the molar mass of the structure shown. Read-outs that look alike come from different tables or passages of the source. One block for each compound: values may come before it.

Tests used:
Pseudomonas aeruginosa = test: MIC screening, broth microdilution (CLSI)
Enterococci = test: MIC screening, broth microdilution (CLSI)
Klebsiella pneumoniae = test: MIC screening, broth microdilution (CLSI)
[1] = system: Acinetobacter calcoaceticus; test: MIC screening, broth microdilution (CLSI)
Staphylococcus aureus = test: MIC screening, broth microdilution (CLSI)
Haemophilus influenzae = test: MIC screening, broth microdilution (CLSI)
Escherichia coli = test: MIC screening, broth microdilution (CLSI)
MRSA = test: MIC screening, broth microdilution (CLSI)
Streptococci = test: MIC screening, broth microdilution (CLSI)
[2] = background statement; cited from earlier work

MIC (Pseudomonas aeruginosa): 1 µg/mL (≈ 2.77 µM)
MIC (Pseudomonas aeruginosa; Exp 2): 1 µg/mL (≈ 2.77 µM)
MIC (Enterococci; Enterococcus faecalis, ATCC29212, Enterococcus faecalis (ATCC 29212), Exp 1): 1 µg/mL (≈ 2.77 µM)
MIC (Enterococci; Enterococcus faecalis, ATCC29212, Enterococcus faecalis (ATCC 29212), Exp 2): 1 µg/mL (≈ 2.77 µM)
MIC (Enterococci; Enterococcus faecium, ATCC700221, Enterococcus faecium (ATCC 700221), Exp 1): > 64 µg/mL
MIC (Enterococci; Enterococcus faecium, ATCC700221, Enterococcus faecium (ATCC 700221), Exp 2): > 64 µg/mL
MIC (Klebsiella pneumoniae): 1 µg/mL (≈ 2.77 µM)
MIC (Klebsiella pneumoniae; Exp 2): 1 µg/mL (≈ 2.77 µM)
MIC [1]: 4 µg/mL (≈ 11.1 µM)
MIC ([1]; Exp 2): 4 µg/mL (≈ 11.1 µM)
MIC (Staphylococcus aureus; ATCC29213, Staphylococcus aureus (ATCC 29213), Exp 1): 0.5 µg/mL (≈ 1.38 µM)
MIC (Staphylococcus aureus; ATCC29213, Staphylococcus aureus (ATCC 29213), Exp 2): 0.25 µg/mL (≈ 0.692 µM)
MIC (Staphylococcus aureus; Staphylococcus aureus (Levofloxacin-resistant), Exp 1): 64 µg/mL (≈ 177 µM)
MIC (Staphylococcus aureus; Staphylococcus aureus (Levofloxacin-resistant), Exp 2): 64 µg/mL (≈ 177 µM)
MIC (Haemophilus influenzae): < 0.0625 µg/mL
MIC (Haemophilus influenzae; Exp 2): <0.0625 µg/mL
MIC (Escherichia coli; Exp 1): < 0.0625 µg/mL
MIC (Escherichia coli; Exp 2): < 0.0625 µg/mL
MIC (MRSA; Staphylococcus aureus (ATCC 43300), Exp 2): 0.25 µg/mL (≈ 0.692 µM)
MIC (MRSA; Staphylococcus aureus (MRSA, Erythromycin & clindamycin-resistant), Exp 2): 8 µg/mL (≈ 22.1 µM)
MIC (MRSA; Staphylococcus aureus, ATCC43300 / MRSA): 0.25 µg/mL (≈ 0.692 µM)
MIC (MRSA; Staphylococcus aureus, MRSA): 8 µg/mL (≈ 22.1 µM)
MIC (Streptococci; Streptococcus pneumoniae, ATCC49619, Streptococcus pneumoniae (ATCC 49619), Exp 1): 0.5 µg/mL (≈ 1.38 µM)
MIC (Streptococci; Streptococcus pneumoniae, ATCC49619, Streptococcus pneumoniae (ATCC 49619), Exp 2): 0.5 µg/mL (≈ 1.38 µM)
MIC (Streptococci; Streptococcus pneumoniae, Streptococcus pneumoniae (Erythromycin-resistant), Exp 1): 1 µg/mL (≈ 2.77 µM)
MIC (Streptococci; Streptococcus pneumoniae, Streptococcus pneumoniae (Erythromycin-resistant), Exp 2): 1 µg/mL (≈ 2.77 µM)
MIC (Streptococci; Streptococcus pyogenes, ATCC700942, Streptococcus pyogenes (ATCC 700942), Exp 1): 0.5 µg/mL (≈ 1.38 µM)
MIC (Streptococci; Streptococcus pyogenes, ATCC700942, Streptococcus pyogenes (ATCC 700942), Exp 2): 0.5 µg/mL (≈ 1.38 µM)
SMILES: C[C@H]1COc2c(N3CCN(C)CC3)c(F)cc3c(=O)c(C(=O)O)cn1c23 [Levofloxacin, reference compound]

SMILES: Oc1ccc(/C=C/c2cc(O)cc(O)c2)cc1 [Resveratrol]
oral bioavailability [2]: very poor oral bioavailability
